Laboratory results as given in US6737383B1, “Herbicidal oxadiazolidines” (priority 1999, dated 2004).

How the values were obtained:
cocklebur = assay: Test B pre/postemergence cocklebur; type: in vivo, Xanthium strumarium; conditions: for Cocklebur plant response rating: scale of 0 to 10 where 0 is no effect and 10 is complete control
Method in brief: (§1)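 Response is a visual 0-to-10 score relative to untreated plants, where 0 means no effect and 10 means complete control, taken twelve to sixteen days after application. Treatments went onto soil at planting and onto foliage of 1- to 4-leaf plants, using a surfactant-containing non-phytotoxic solvent.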

crabgrass = assay: Test B pre/postemergence crabgrass; type: in vivo, Digitaria sanguinalis; conditions: for Crabgrass plant response rating: scale of 0 to 10 where 0 is no effect and 10 is complete control
Method in brief: as §1

wheat = assay: Test B pre/postemergence wheat; type: in vivo, Triticum aestivum; conditions: for Wheat plant response rating: scale of 0 to 10 where 0 is no effect and 10 is complete control
Method in brief: as §1

wild oat [1] = assay: Test B pre/postemergence wild oat; type: in vivo, Avena fatua; conditions: for Wild oats plant response rating: scale of 0 to 10 where 0 is no effect and 10 is complete control
Method in brief: as §1

winter wheat [2] = assay: Test E winter wheat; type: in vivo, Triticum aestivum; conditions: Postemergence
Method in brief: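 Visually scored herbicidal effect relative to untreated plants, taken ~21 to 28 days post-application; compound in solvent with surfactant; postemergence sprays at the 1- to 4-leaf stage.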

blackgrass = assay: Test E blackgrass; type: in vivo, Alopecurus myosuroides; conditions: Preemergence
green foxtail = assay: Test E green foxtail; type: in vivo, Setaria viridis; conditions: Preemergence
Italian ryegrass = assay: Test E Italian ryegrass; type: in vivo, Lolium multiflorum; conditions: Preemergence
winter wheat [3] = assay: Test E winter wheat; type: in vivo, Triticum aestivum; conditions: Preemergence
wild oat [4] = assay: Test E wild oat; type: in vivo, Avena fatua; conditions: Preemergence
winter barley = assay: Test E winter barley; type: in vivo, Hordeum vulgare; conditions: Preemergence
[5] = Postemergence, Rate 125 g/ha, scale 0 to 10, 0 is no effect, 10 is complete control
[6] = Preemergence, Rate 62 g/ha, scale 0 to 10 (0 no effect, 10 complete control)
[7] = Rate 500 g/ha, Postemergence, scale 0 to 10, 0 no effect, 10 complete control
[8] = Rate 250 g/ha, 0 to 100 scale, 0 is no effect, 100 is complete control
[9] = Rate 500 g/ha, 0 to 100 scale, 0 is no effect, 100 is complete control
[10] = Rate 500 g/ha, 0 to 100 scale (0 no effect, 100 complete control)
[11] = Rate 1000 g/ha, 0 to 100 scale, 0 no effect, 100 complete control
[12] = Rate 250 g/ha, 0 to 100 scale, 0 no effect, 100 complete control
[13] = Rate 125 g/ha, 0 to 100 scale (0 no effect, 100 complete control)

SMILES: CC(C)N(C(=O)n1oc(=O)n(C2CCCCCC2)c1=O)c1ccccc1 [Compound 341]
- Plant response rating, Cocklebur (cocklebur; [5]): 0
- Plant response rating, Cocklebur (cocklebur; [6]): 0
- Cocklebur plant response rating (0 to 10 scale) (cocklebur; Preemergence, Rate 125 g/ha): 0
- Cocklebur plant response rating (cocklebur; Preemergence, Rate 250 g/ha): 0
- Cocklebur plant response rating (cocklebur; Preemergence, Rate 500 g/ha): 0
- Cocklebur plant response rating (cocklebur; Rate 62 g/ha, Postemergence): 0
- Plant response rating, Crabgrass (crabgrass; [5]): 0
- Plant response rating, Crabgrass (crabgrass; [6]): 2
- Crabgrass plant response rating (0 to 10 scale) (crabgrass; Preemergence, Rate 125 g/ha): 2
- Crabgrass plant response rating (crabgrass; Preemergence, Rate 250 g/ha): 2
- Crabgrass plant response rating (crabgrass; Preemergence, Rate 500 g/ha): 8
- Crabgrass plant response rating (crabgrass; Rate 62 g/ha, Postemergence): 0
- Plant response rating, Crabgrass (crabgrass; [7]): 2
- Plant response rating, Wheat (wheat; [5]): 0
- Plant response rating, Wheat (wheat; [6]): 0
- Wheat plant response rating (0 to 10 scale) (wheat; Preemergence, Rate 125 g/ha): 0
- Wheat plant response rating (wheat; Preemergence, Rate 250 g/ha): 0
- Wheat plant response rating (wheat; Preemergence, Rate 500 g/ha): 0
- Wheat plant response rating (wheat; Rate 62 g/ha, Postemergence): 0
- Plant response rating, Wheat (wheat; [7]): 0
- Plant response rating, Wild oats (wild oat [1]; [5]): 0
- Plant response rating, Wild oats (wild oat [1]; [6]): 0
- Wild oats plant response rating (0 to 10 scale) (wild oat [1]; Preemergence, Rate 125 g/ha): 0
- Wild oats plant response rating (wild oat [1]; Preemergence, Rate 250 g/ha): 0
- Wild oats plant response rating (wild oat [1]; Preemergence, Rate 500 g/ha): 2
- Wild oats plant response rating (wild oat [1]; Rate 62 g/ha, Postemergence): 0
- Plant response rating, Wild oats (wild oat [1]; [7]): 3
- Plant response rating, Wheat (winter) (winter wheat [2]; [8]): 70
- Plant response rating, Wheat (winter) (winter wheat [2]; Rate 1000 g/ha, 0 to 100 scale where 0 is no effect and 100 is complete control): 65
- Plant response rating, Wheat (winter) (winter wheat [2]; [9]): 65
- Plant response rating, Blackgrass (blackgrass; Rate 250 g/ha, 0 to 100 scale): 40
- Plant response rating, Blackgrass (blackgrass; [10]): 60
- Plant response rating, Blackgrass (blackgrass; [11]): 90
- Plant response rating, Green foxtail (green foxtail; Rate 250 g/ha, 0 to 100 scale): 25
- Plant response rating, Green foxtail (green foxtail; [10]): 55
- Plant response rating, Green foxtail (green foxtail; [11]): 85
- Plant response rating, I. Ryegrass (Italian ryegrass; Rate 250 g/ha, 0 to 100 scale): 50
- Plant response rating, I. Ryegrass (Italian ryegrass; [10]): 55
- Plant response rating, I. Ryegrass (Italian ryegrass; [11]): 55
- Plant response rating, Wheat (winter) (winter wheat [3]; Rate 250 g/ha, 0 to 100 scale): 40
- Plant response rating, Wheat (winter) (winter wheat [3]; [10]): 50
- Plant response rating, Wheat (winter) (winter wheat [3]; [11]): 85
- Plant response rating, Wild oat (wild oat [4]; Rate 250 g/ha, 0 to 100 scale): 60
- Plant response rating, Wild oat (wild oat [4]; [10]): 70
- Plant response rating, Wild oat (wild oat [4]; [11]): 80
- Plant response rating, Barley (winter) (winter barley; [12]): 70
- Plant response rating, Barley (winter) (winter barley; [10]): 60
- Plant response rating, Barley (winter) (winter barley; [11]): 80

SMILES: CC(C)N(C(=O)n1oc(=O)n(C2CCC2)c1=O)c1ccc(F)cc1 [Compound 350]
- Plant response rating, Cocklebur (cocklebur; [5]): 0
- Plant response rating, Cocklebur (cocklebur; [6]): 0
- Cocklebur plant response rating (0 to 10 scale) (cocklebur; Preemergence, Rate 125 g/ha): 0
- Cocklebur plant response rating (cocklebur; Preemergence, Rate 250 g/ha): 0
- Cocklebur plant response rating (cocklebur; Preemergence, Rate 500 g/ha): 0
- Cocklebur plant response rating (cocklebur; Rate 62 g/ha, Postemergence): 0
- Plant response rating, Cocklebur (cocklebur; [7]): 3
- Plant response rating, Crabgrass (crabgrass; [5]): 1
- Plant response rating, Crabgrass (crabgrass; [6]): 8
- Crabgrass plant response rating (0 to 10 scale) (crabgrass; Preemergence, Rate 125 g/ha): 8
- Crabgrass plant response rating (crabgrass; Preemergence, Rate 250 g/ha): 10
- Crabgrass plant response rating (crabgrass; Preemergence, Rate 500 g/ha): 10
- Crabgrass plant response rating (crabgrass; Rate 62 g/ha, Postemergence): 1
- Plant response rating, Crabgrass (crabgrass; [7]): 7
- Plant response rating, Wheat (wheat; [5]): 0
- Plant response rating, Wheat (wheat; [6]): 0
- Wheat plant response rating (0 to 10 scale) (wheat; Preemergence, Rate 125 g/ha): 0
- Wheat plant response rating (wheat; Preemergence, Rate 250 g/ha): 2
- Wheat plant response rating (wheat; Preemergence, Rate 500 g/ha): 3
- Wheat plant response rating (wheat; Rate 62 g/ha, Postemergence): 0
- Plant response rating, Wheat (wheat; [7]): 2
- Plant response rating, Wild oats (wild oat [1]; [5]): 0
- Plant response rating, Wild oats (wild oat [1]; [6]): 0
- Wild oats plant response rating (0 to 10 scale) (wild oat [1]; Preemergence, Rate 125 g/ha): 3
- Wild oats plant response rating (wild oat [1]; Preemergence, Rate 250 g/ha): 5
- Wild oats plant response rating (wild oat [1]; Preemergence, Rate 500 g/ha): 7
- Wild oats plant response rating (wild oat [1]; Rate 62 g/ha, Postemergence): 0
- Plant response rating, Wild oats (wild oat [1]; [7]): 5
- Plant response rating, Wheat (winter) (winter wheat [2]; Rate 125 g/ha, 0 to 100 scale, 0 is no effect, 100 is complete control): 50
- Plant response rating, Wheat (winter) (winter wheat [2]; [8]): 30
- Plant response rating, Wheat (winter) (winter wheat [2]; [9]): 40
- Plant response rating, Blackgrass (blackgrass; [13]): 50
- Plant response rating, Blackgrass (blackgrass; Rate 250 g/ha, 0 to 100 scale): 30
- Plant response rating, Blackgrass (blackgrass; [10]): 60
- Plant response rating, Green foxtail (green foxtail; [13]): 65
- Plant response rating, Green foxtail (green foxtail; Rate 250 g/ha, 0 to 100 scale): 55
- Plant response rating, Green foxtail (green foxtail; [10]): 85
- Plant response rating, I. Ryegrass (Italian ryegrass; [13]): 60
- Plant response rating, I. Ryegrass (Italian ryegrass; Rate 250 g/ha, 0 to 100 scale): 90
- Plant response rating, I. Ryegrass (Italian ryegrass; [10]): 85
- Plant response rating, Wheat (winter) (winter wheat [3]; [13]): 40
- Plant response rating, Wheat (winter) (winter wheat [3]; Rate 250 g/ha, 0 to 100 scale): 40
- Plant response rating, Wheat (winter) (winter wheat [3]; [10]): 50
- Plant response rating, Wild oat (wild oat [4]; [13]): 40
- Plant response rating, Wild oat (wild oat [4]; Rate 250 g/ha, 0 to 100 scale): 60
- Plant response rating, Wild oat (wild oat [4]; [10]): 65
- Plant response rating, Barley (winter) (winter barley; [13]): 5
- Plant response rating, Barley (winter) (winter barley; [12]): 10
- Plant response rating, Barley (winter) (winter barley; [10]): 25
